Values quoted from earlier work in article PMC9655391 (International Journal of Molecular Sciences, 2022).

Conditions: oral administration; ref [16],[20],[21],[22]

CCCCc1nc(Cl)c(CO)n1Cc1ccc(-c2ccccc2-c2nn[nH]n2)cc1 [LP, losartan potassium]
bioavailability: 32%
